Structures can show the parent of a compound that is named as a salt. Where two headings read alike, the source gives them in different places.
What was measured:
[1] = system: pAKT (p-Akt 1/2/3 (Ser473)) in MCF-7 cells; assay: AlphaLISA Ultra pAKT assay; assay type: cell-based
Procedure: Example 156: AlphaLISA Ultra pAKT Assay
(§1) Assay Protocol: • 1. MCF-7 cells in Corning 3701 plate and incubate for 20-24 hour. 16,000-20,000 cells will be seeded in 36 μL medium per well. • 2. Change the culture medium with fresh medium and incubate for another 2 hours. • 3. Add 12 μL (4×) compounds into the cell plate by HAMILTON. Final DMSO concentration is 0.5%. Incubate for 2 hours. • 4. Aspirate 38 j L by HAMILTON, 10 μL rest per well. • 5. Add 10 μL 2× lysis buffer using HAMILTON; total volume in wells is 20 μL. Allow cells to shake for 30 min. Cover plate by plastic foil and store plate at −80° C. up to analysis. • 6. Thaw cell lysate at RT and transfer 10 ul lysate to assay plate (Optiplate-384). • 7. Add 5 ul acceptor beads into assay plate and incubation for 2 hours • 8. Add 5 ul donor beads and incubation for 2 hours • 9. Count the plate by EnSpire Multimode Plate Reader

[2] = system: pS6K1 (p-p70 S6 Kinase (Thr389)) in MCF-7 cells; assay: AlphaLISA Ultra pS6K1 assay; assay type: cell-based; settings: 2 hours compound incubation
Procedure: Example 155: AlphaLISA Ultra pS6K1 assay
as §1, with “1. Seed” for “1.”, “20˜24” for “20-24”, “12,000˜16,000” for “16,000-20,000”, “μL” for “j L”

[3] = Homo sapiens, MCF7, 2 hours compound incubation
[4] = 2 hours compound incubation, read-out: pAKT in MCF7: IC50

Row | SMILES | IC50 [1, 3] [nM] | IC50 ([2]; Homo sapiens, MCF7, 2 h) [nM] | IC50 [1, 4] [nM] | IC50 ([2]; read-out: pS6K1 in MCF7: IC50) [nM]
1 | COc1cccc(N2CCC(Nc3cc(C(=O)N4CCN(c5ccccc5S(N)(=O)=O)CC4)c(C)cc3C)CC2)c1 [I-5, 2-(4-(5-(1-(3-Methoxyphenyl)piperidin-4-ylamino)-2,4-dimethylbenzoyl)piperazin-1-yl) benzenesulfonamide] | > 10000 | 1000 to 3000 | – | –
2 | Cc1cc(C)c(C(=O)N2CCN(C(=O)OC(C)(C)C)[C@@H](CO)C2)cc1NC1CCN(c2ccccc2C#N)CC1 [I-7, (R)-tert-Butyl 4-(5-(1-(2-cyanophenyl)piperidin-4-ylamino)-2,4-dimethylbenzoyl)-2-(hydroxymethyl) piperazine-1-carboxylate] | > 10000 | 1000 to 3000 | – | –
3 | Cc1cc(C)c(C(=O)N2CCN[C@H](CO)C2)cc1NC1CCN(c2ccccc2C#N)CC1 [I-8, (S)-2-(4-(5-(3-(hydroxymethyl)piperazine-1-carbonyl)-2,4-dimethylphenylamino)piperidin-1-yl)benzonitrile] | > 10000 | > 10000 | – | –
4 | Cc1cc(C)c(C(=O)N2CCN(C(=O)OC(C)(C)C)[C@H](CO)C2)cc1NC1CCN(c2ccccc2C#N)CC1 [I-9, (S)-tert-butyl 4-(5-(1-(2-cyanophenyl)piperidin-4-ylamino)-2,4-dimethylbenzoyl)-2-(hydroxymethyl)piperazine-1-carboxylate] | > 10000 | 1000 to 3000 | – | –
5 | CCN(c1cc(C(=O)N2CCN(c3ccccc3S(N)(=O)=O)CC2)c(C)cc1C)C1CCN(c2ccccc2C#N)CC1C (stereo not drawn) [I-10, 2-(4-(5-((1-(2-Cyanophenyl)-3-methylpiperidin-4-yl)(ethyl)amino)-2,4-dimethylbenzoyl)piperazin-1-yl)benzenesulfonamide] | > 10000 | 1000 to 3000 | – | –
6 | Cc1ccc(C(=O)N2CCN(c3ccccc3S(N)(=O)=O)CC2)cc1NC1CCN(c2ccccc2C#N)CC1 [I-11] | > 10000 | 3000 to 5000 | – | –
7 | Cc1nc(C)c(C(=O)N2CCN(c3ccccc3C#N)CC2)cc1NC1CCN(c2ccccc2C#N)CC1 [I-13, 2-(4-(5-(4-(2-Cyanophenyl)piperazine-1-carbonyl)-2,6-dimethylpyridin-3-ylamino)piperidin-1-yl)benzonitrile] | > 10000 | 3000 to 5000 | – | –
8 | Cc1cc(C)c(C(=O)N2CCN(c3cccc(F)c3S(N)(=O)=O)CC2)nc1NC1CCN(c2ccccc2C#N)CC1 [I-16, 2-(4-(6-(1-(2-Cyanophenyl)piperidin-4-ylamino)-3,5-dimethylpicolinoyl)piperazin-1-yl)-6-fluorobenzenesulfonamide] | > 10000 | 10 to 1000 | – | –
9 | Cc1cc(C)c(C(=O)N2CCN(c3ccccc3C#N)CC2)cc1NC1CCN(c2cccc(Cl)c2)CC1 [I-17, 2-(4-(5-(1-(3-Chlorophenyl)piperidin-4-ylamino)-2,4-dimethylbenzoyl)piperazin-1-yl)benzonitrile] | > 10000 | 1000 to 3000 | – | –
10 | Cc1cc(C)c(C(=O)N2CCN(c3ccccc3C#N)CC2)cc1NC1CCN(c2cccc(C#N)c2)CC1 [I-18, 2-(4-(5-(1-(3-Cyanophenyl)piperidin-4-ylamino)-2,4-dimethylbenzoyl)piperazin-1-yl)benzonitrile trifluoroacetate] | > 10000 | 1000 to 3000 | – | –
11 | Cc1cc(C)c(C(=O)N2CCN(c3cccc(F)c3S(=O)(=O)N=C(N(C)C)N(C)C)CC2)cc1NC1CCN(c2ccccc2C#N)CC1 [I-19, 2-{2-[4-(5-{[1-(2-cyanophenyl)piperidin-4-yl]amino}-2,4-dimethylbenzoyl)piperazin-1-yl]-6-fluorobenzenesulfonyl}-1,1,3,3-tetramethylguanidine] | > 10000 | 1000 to 3000 | – | –
12 | Cc1cc(C)c(C(=O)N2CCN(c3ccccc3)[C@H](C(C)(C)O)C2)cc1NC1CCN(c2ccccc2C#N)CC1 [I-20] | > 10000 | 1000 to 3000 | – | –

Other lines, results leading:

Row | IC50 [1, 3] [nM] | IC50 ([2]; Homo sapiens, MCF7, 2 h) [nM] | IC50 [1, 4] [nM] | IC50 ([2]; read-out: pS6K1 in MCF7: IC50) [nM] | SMILES
13 | > 10000 | 3000 to 5000 | – | – | Cc1cc(C)c(C(=O)N2CCN(c3ccccn3)[C@H](CO)C2)cc1NC1CCN(c2ccccc2C#N)CC1 (single isomer, unassigned) [I-38, 2-[4-({5-[(3S or 3R)-3-(hydroxymethyl)-4-(pyridin-2-yl)piperazine-1-carbonyl]-2,4-dimethylphenyl}amino)piperidin-1-yl]benzonitrile]
14 | > 10000 | 10 to 1000 | – | – | Cc1cc(C)c(C(=O)N2CCN(c3ccccc3)[C@H](CO)C2)cc1NC1CCN(c2ccccc2C#N)CC1 (single isomer, unassigned) [I-40, 2-[4-({5-[3S or R-(hydroxymethyl)-4-phenylpiperazine-1-carbonyl]-2,4-dimethylphenyl}amino)piperidin-1-yl]benzonitrile]
15 | > 10000 | 1000 to 3000 | – | – | Cc1cc(C)c(C(=O)N2CCN(c3ccccc3)[C@@H](CO)C2)cc1NC1CCN(c2ccccc2C#N)CC1 (single isomer, unassigned) [I-41, 2-[4-({5-[3R or S-(hydroxymethyl)-4-phenylpiperazine-1-carbonyl]-2,4-dimethylphenyl}amino)piperidin-1-yl]benzonitrile]
16 | – | – | > 10000 | 1000 to 3000 | Cc1cc(C)c(C(=O)N2CCN(c3ccccc3S(C)(=N)=O)CC2)cc1NC1CCN(c2ccccc2C#N)CC1 (single isomer, unassigned) [I-50, 2-(4-{[5-(4-{2-[(R or S)-imino(methyl)oxo-λ^6-sulfanyl]phenyl}piperazine-1-carbonyl)-2,4-dimethylphenyl]amino}piperidin-1-yl)benzonitrile]
17 | > 10000 | 10 to 1000 | – | – | Cc1cc(C)c(C(=O)N2CCN(c3ccccc3C#N)[C@@H](CO)C2)cc1NC1CCN(c2ccccc2C#N)CC1 (single isomer, unassigned) [I-77, 2-[4-({5-[(3R or 3S)-4-(2-Cyanophenyl)-3-(hydroxymethyl)piperazine-1-carbonyl]-2,4-dimethylphenyl}amino)piperidin-1-yl]benzonitrile]
18 | > 10000 | – | – | 3000 to 5000 | Cc1ccc(NC2CCN(c3ccccc3C#N)CC2)cc1C(=O)N1CCN(c2ccccc2)C(CO)C1 (single isomer, unassigned) [I-82, 2-[4-({3-[(3R or S)-3-(hydroxymethyl)-4-phenylpiperazine-1-carbonyl]-4-methylphenyl}amino)piperidin-1-yl]benzonitrile]
19 | – | – | > 10000 | 10 to 1000 | Cc1ccc(NC2CCN(c3ccccc3C#N)CC2)cc1C(=O)N1CCN(c2ccccc2)C(CO)C1 (single isomer, unassigned) [I-83, 2-[4-({3-[(3S or R)-3-(hydroxymethyl)-4-phenylpiperazine-1-carbonyl]-4-methylphenyl}amino)piperidin-1-yl]benzonitrile]
20 | > 10000 | – | – | 1000 to 3000 | Cc1ccc(C(=O)N2CCN(c3ccccc3)C(CO)C2)cc1NC1CCN(c2ccccc2C#N)CC1 (single isomer, unassigned) [I-84, 2-[4-({5-[(3R or S)-3-(hydroxymethyl)-4-phenylpiperazine-1-carbonyl]-2-methylphenyl}amino)piperidin-1-yl]benzonitrile]
21 | – | – | > 10000 | 10 to 1000 | Cc1ccc(C(=O)N2CCN(c3ccccc3)C(CO)C2)cc1NC1CCN(c2ccccc2C#N)CC1 (single isomer, unassigned) [I-85, 2-[4-({5-[(3S or R)-3-(hydroxymethyl)-4-phenylpiperazine-1-carbonyl]-2-methylphenyl}amino)piperidin-1-yl]benzonitrile]
22 | > 10000 | 10 to 1000 | – | – | Cc1cc(C)c(C(=O)N2CCN(c3cccc(F)c3[S@](C)(=N)=O)CC2)cc1NC1CCN(c2ccccc2C#N)CC1 (single isomer, unassigned) [I-89]
23 | > 10000 | 1000 to 3000 | – | – | Cc1cc(C)c(C(=O)N2CCN(c3ncccc3[S@](C)(=N)=O)CC2)cc1NC1CCN(c2ccccc2C#N)CC1 (single isomer, unassigned) [I-93]
24 | > 10000 | 10 to 1000 | – | – | Cc1cc(C)c(C(=O)N2CCN(c3ccccc3S(C)(=N)=O)CC2)nc1NC1CCN(c2ccccc2C#N)CC1 (single isomer, unassigned) [I-126, 2-(4-(3,5-Dimethyl-6-(4-(2-(S-methylsulfonimidoyl)phenyl)piperazine-1-carbonyl)pyridin-2-ylamino)piperidin-1-yl)benzonitrile]
25 | > 10000 | 1000 to 3000 | – | – | CNC(=O)c1ccccc1N1CCN(C(=O)c2cc(NC3CCN(c4ccccc4C#N)CC3)c(C)cc2C)C[C@@H]1CO (single isomer, unassigned) [I-133]
26 | > 10000 | 1000 to 3000 | – | – | CNC(=O)c1ccccc1N1CCN(C(=O)c2cc(NC3CCN(c4ccccc4C#N)CC3)c(C)cc2C)C[C@H]1CO (single isomer, unassigned) [I-134]
27 | > 10000 | 3000 to 5000 | – | – | Cc1cc(C)c(C(=O)N2CCN(c3ccccc3)[C@@H](C(C)(C)O)C2)cc1NC1CCN(c2ccccc2C#N)CC1 [I-21]

Source: patent US10844013B2, “Phenyl amino piperidine mTORC inhibitors and uses thereof” (Navitor Pharmaceuticals, Inc., priority 2016, dated 2020)
